Several values for one entry are separate records, joined by “and”; a condition that tells them apart may be missing. Identical values can stand only once. Entries after “also recorded” stand apart in the source; their conditions may differ. Like-named read-outs stand apart in the source and are kept apart here.
How the values were obtained:
[1] = Phase 1 single dose plasma exposure in healthy volunteers; type: in vivo, human; settings: for AUC: human, plasma, oral, AUC=AUCinf
Protocol: (§1) Table 1 summarizes the reported plasma exposure from three studies-single dose Phase I in healthy volunteers (30-900 mg, AUC=AUCinf); Phase II ARAMCHOL™ 003 repeat dose study (AUC on D84 from 100 & 300 mg QD), Phase IIb Cmin on D84 (400 and 600 mg QD).
Biovailability relative to 30 […] has been calculated as (AUC/Dose)/(AUC/30 mg) and is plotted for this group in FIG. 11.

Wistar rats = assay: Thioacetamide (TAA)-induced fibrosis, model for hepatic cirrhosis; type: in vivo; settings: 5 mg/kg, co-administered with TAA during 10 weeks
Protocol: Liver fibrosis was induced in Wistar rats by intraperitoneal injections of TAA (20 mg/100 gr body weight) twice per week during 10 weeks. I.p. application of TAA results in hepatic centrolobular necrosis, elevated transaminase activity and robust liver fibrosis. Treatment groups further included co-administration of Aramchol™ (1 or 5 mg/kg orally) or obaticholic acid (OCA, 5 mg/kg). A control group of saline-treated rats (in the absence of TAA administration) was further included. Rats were then sacrificed, and livers were observed macroscopically for signs of cirrhosis and necrotic lesions, and microscopically, following Masson Goldner staining. The fibrosis score, calculated at a scale of 0-4, was determined for each sample, wherein 0 indicates no fibrosis and 4 indicates advanced fibrosis and cirrhosis.

[2] = Phase 2b steady state trough (Cmin) plasma concentration in patients; type: in vivo, human; settings: for AUC/Dose / Relative bioavailability (AUC/Dose normalized to 30 mg HV data) / concentration at 84 day / AUC: patients; for AUC/Dose / Relative bioavailability (AUC/Dose normalized to 30 mg HV data) / concentration at 84 day: D84; for concentration at 84 day: read-out: SS Cmin; for AUC: estimated from observed Cmin on D84*24 h
Description: Blood sample for Aramchol™ trough level will be collected (pre-dose) from patients in Israel at baseline (visit 2) week 4 (visit 4), week 12 (visit 6), week 24 (visit 7), week 40 (visit 9), end of treatment (visit 10) and follow up (visit 11). At selected sites in Mexico, USA and Hong Kong one blood sample will be collected (pre-dose) on visit 4 (up to 10 subjects per country) to test for trough Aramchol™ blood level differences between populations (e.g., African American, Asian, Hispanic).
as §1
The steady state (day 84) Cmin in patients at 400 mg and 600 mg has been measured. […] Again, this may reflect inter-subject variability or a difference in the excipients used in the tablets.

[3] = test system: Primary hepatocytes from C57BL/6 mice; assay: PPARγ mRNA expression in primary hepatocytes (qPCR); type: cell-based; settings: Aramchol 10 μM, 48 hours
Protocol: Serum-starved LX2 cells were treated with Aramchol™ (10 μM) for 24 or 48 hours. Fibrogenic gene expression and SCD-1 protein expression were measured by qPCR and Western, respectively. RNAseq was performed at 24 and 48 h in duplicate. Differential gene expression was assessed with DSeq2, while gene set enrichment analysis (GSEA) and gene ontology (GO) analyses assessed functionality of gene expression changes. Primary hepatocytes from C57BL/6 mice were harvested by perfusion and treated with Aramchol™ ([…]) for 48 hours in culture. PPAR γ mRNA expression was measured by qPCR.

CCCCCCCCCCCCCCCCCCCC(=O)N[C@H]1CC[C@@]2(C)[C@@H](C1)C[C@@H](O)[C@@H]1[C@@H]2C[C@H](O)[C@]2(C)[C@@H]([C@H](C)CCC(=O)O)CC[C@@H]12 [Aramchol™, 3β-arachidylamido-7α, 12α-dihydroxy-5β-cholan-24-oic acid]
exposure (AUC) of single 900 mg dose higher than single 300 mg dose [1]: 1.35 fold
decrease in AUC/Dose across the dose range ([1]; 30-900 mg): four-fold
AUC ([1]; single dose 30 mg): 11900 ng·h/mL
AUC ([1]; single dose 100 mg): 25700 ng·h/mL
AUC ([1]; single dose 300 mg): 64300 ng·h/mL
AUC ([1]; single dose 900 mg): 86900 ng·h/mL
AUC/Dose ([1]; single dose 30 mg): 397 ng/mL · h/(mg/kg)
Relative bioavailability (AUC/Dose normalized to 30 mg HV data) ([1]; single dose 30 mg): 1
AUC/Dose ([1]; single dose 100 mg): 257 ng/mL · h/(mg/kg)
Relative bioavailability (AUC/Dose normalized to 30 mg HV data) ([1]; single dose 100 mg): 0.65
AUC/Dose ([1]; single dose 300 mg): 214 ng/mL · h/(mg/kg)
Relative bioavailability (AUC/Dose normalized to 30 mg HV data) ([1]; single dose 300 mg): 0.53 and 0.54
AUC/Dose ([1]; single dose 900 mg): 97 ng/mL · h/(mg/kg)
Relative bioavailability (AUC/Dose normalized to 30 mg HV data) ([1]; single dose 900 mg): 0.24
TAA induced fibrosis (Wistar rats): significantly prevented
development of necrosis and cirrhosis (macroscopic) (Wistar rats): reduced significantly; also recorded: significantly inhibited
fibrotic score and collagen distribution in the tissue (Masson Goldner staining) (Wistar rats; score scale 0-4): reduced significantly
AUC/Dose ([2]; 400 mg QD): 172 ng/mL · h/(mg/kg)
Relative bioavailability (AUC/Dose normalized to 30 mg HV data) ([2]; 400 mg QD): 0.43
AUC/Dose ([2]; 600 mg QD): 144 ng/mL · h/(mg/kg)
Relative bioavailability (AUC/Dose normalized to 30 mg HV data) ([2]; 600 mg QD): 0.36
half-life ([2]; human, plasma, oral): > 24 h
concentration at 84 day ([2]; human, plasma, oral, 400 mg QD): 2860 ng/mL
AUC ([2]; human, plasma, oral, 400 mg QD): 68600 ng·h/mL
concentration at 84 day ([2]; human, plasma, oral, 600 mg QD): 3610 ng/mL
AUC ([2]; human, plasma, oral, 600 mg QD): 86700 ng·h/mL
PPARγ mRNA expression (qPCR) [3]: does not affect
